US20200253979A1, “THERAPEUTIC METHODS RELATING TO HSP90 INHIBITORS” (AI Therapeutics, Inc., priority 2017, published 2020)
Like-named read-outs stand apart in the source and are kept apart here.

Columns and labels:
[1] = system: EGFR wild type (WT) in BaF3 cells; assay: Cell surface EGFR expression in BaF3 cells by flow cytometry; type: cell-based, murine; settings: Mus musculus; BaF3, 24 hours; read-out: EC50 for reduction of cell surface EGFR WT
From the text: (§1) To determine whether MPC-0767 can also promote degradation of an EGFR exon20ins mutant, the BaF3 murine cell line was used (Warmuth et al., Curr Opin Oncol., 200719: 55-60). This cell line is dependent upon exogenous IL-3 for survival/growth but upon introduction of an oncogene, the cells no longer depend on exogenous IL-3, and instead survival is driven by the introduced oncogene. Thus, drugs that target the introduced oncogene will reduce BaF3 cell viability providing a mechanism to screen small molecules against relevant oncogenic mutations that arise in the clinic.
(§2) BaF3 cells harboring EGFR wild type (WT) or EGFR exon20 V769_D770insASV mutant were treated with increasing concentrations of MPC-0767 for 24 hours. After this time, cells were harvested for flow cytometry to assess cell surface EGFR expression (antibody for detection recognized both WT and mutant proteins). […] We further tested whether this finding translated to reduced survival in BaF3 cells expressing the EGFR mutant. Parental BaF3 cells (no mutant) or cells harboring EGFR exon20 V769_D770insASV were treated with increasing concentrations of MPC-0767 for 72 hours after which cell viability was determined using CellTiter-Glo®.

[2] = system: EGFR exon20 V769_D770insASV mutant in BaF3 cells; assay: as above; type: cell-based, murine; settings: Mus musculus; BaF3, 24 hours; read-out: EC50 for reduction of cell surface EGFR exon20 V769_D770insASV mutant
From the text: as §1, §2

Parental BaF3 cells = assay: CellTiter-Glo cell viability; type: cell-based, murine; settings: Mus musculus; parental BaF3, 72 hours
From the text: as §1, §2

[3] = system: BaF3 cells harboring EGFR exon20 V769_D770insASV; assay: CellTiter-Glo cell viability; type: cell-based, murine
From the text: as §1, §2

[4] = system: PD-L1 on primary AML patient samples; assay: PD-L1 cell surface expression by flow cytometry; type: cell-based, human; settings: 24 hours
Protocol: To study whether MPC-0767 blocks IFN-γ-induced PD-L1 expression, six AML patient samples harboring FLT3 WT (n=2) or FLT3-ITD (n=4) were treated with human IFN-γ (50 ng/ml) alone, MPC-0767 (1 μM) alone or the combination of the two for 24 hours. Cells were then harvested to assess PD-L1 cell surface expression by flow cytometry. Cells were also stained with the AML blast markers CD34 or CD45 (to gate on the blast population) and a viability stain to gate on viable cells.

MOLM-14 cells (FLT3-ITD) = assay: CellTiter-Glo cell viability (single agent and combination); type: cell-based; settings: 72 hours; for IC50: Homo sapiens, MOLM-14, 72 h, read-out: EC50 (cell viability)
Protocol: HS-5 is a human marrow stromal cell line that secretes various growth factors sufficient to support hematopoietic progenitor growth (Roecklein et al., Blood, 1995) which thus mimics stromal conditions.
Three cell lines which harbor FLT3-ITD were used for the drug combination studies (MV-4-11, MOLM-13, and MOLM-14).
Cells were treated with the drugs (single agent or combination) for 72 hours. Drug combination activity was determined by first measuring cell viability with CellTiter-Glo®, followed by the calculation of the EC50 corresponding to single agent activity, using the R DRC package (R Core Team, 2017). The combination index (CI) values were computed using the Chou-Talalay method (Chou T, Cancer Research., 2010 70(2): 440-6.), based on the viability of each drug alone and in combination, across all concentrations tested. In brief, CI was defined as: […]
Loss of function mutations of KDM6A are observed in FLT3-ITD AML (Garg et al., 2015 Blood 126 (22):2491-501). […] To therapeutically exploit this finding, we hypothesized that inhibiting EZH2, the histone H3K27 methyltransferase that functionally opposes KDM6A, would enhance sensitivity to MPC-0767. To test this hypothesis, a FLT3-ITD cell line (MV-4-11) was used and treated with either of the two clinical stage EZH2 inhibitors, EPZ-6438 and CPI-1205, at 8 different concentrations for 4 days. Following this time, cells were counted, reseeded and treated with 8 concentrations of EZH2 inhibitor alone, 8 concentrations of MPC-0767 alone, or the combination of the two (64 total combinations).

[5] = system: MV-4-11 cell line (AML FLT3-ITD) xenograft; assay: Subcutaneous MV-4-11 xenograft study; settings: oral, 200 mg/kg QD×2 days then 150 mg/kg QD×15 days
Protocol: Each mouse was inoculated subcutaneously in the right flank with 5×10^6 tumor cells in 0.1 ml PBS/Matrigel (1:1). When the mean tumor volume reached 91 mm^3 in size, mice were randomized into 2 groups of 10. […] Tumor measurements (caliper) were taken on the indicated days. […] Student t-test was used to evaluate the statistical significance of the difference between these groups P<0.0001.

[6] = system: NSCLC cell lines HCC-827, H1975, PC-9 and H1781; assay: CellTiter-Glo cell viability in NSCLC cell lines; type: cell-based; settings: 98-50000 nM, 3 days; HCC-827, H1975, PC-9, H1781
Protocol: The NSCLC cell lines HCC-827 (EGFR L858R), H1975 (EGFR L858R/T790M) PC-9 (EGFR Del E746_A750) and H1781 (HER2 G7776insV G/C) were treated with MPC-0767 at a concentration range of 98-50000 nM for 3 days, after which time cell viability was determined using CellTiter-Glo® reagent.

[7] = system: PD-1+ Jurkat reporter cells with THP-1 AML cells; assay: Jurkat NFAT-luciferase reporter T cell activation with THP-1 cells; type: cell-based; settings: THP-1 treated overnight with IFNγ and MPC-0767 1 μM or 2 uM
From the text: The addition of antibodies that block the PD-1/PD-L1 pathway stimulate an increased T cell response in vitro, in pre-clinical animal models, and in cancer patients. This can lead to tumor regressions or tumor clearance in patients. To examine MPC-0767 effects on PD-L1 and T cell activation, we used a model system in which PD-1+ Jurkat T cells express luciferase under the control of the NFAT promoter (Promega, hereafter referred to Jurkat reporter cells). When T cells are stimulated through the T cell receptor (TCR), activation of the NFAT pathway drives expression of luciferase.
We next determined whether MPC-0767 reduction of PD-L1 could increase T cell stimulation similar to anti-PD-L1 blocking antibodies. THP-1 cells were treated overnight with IFNγ in the presence or absence of MPC-0767 (1 μM or 2 uM). THP-1 cells were washed and a portion saved for flow cytometry analysis of PD-L1 expression. The remaining cells were incubated with Jurkat reporter cells and anti-CD3 (10 ng/ml) for 6 hours.

C[C@H](N)C(=O)O[C@@H](C)C(=O)N1CCC(CCn2c(Sc3cc4c(cc3Br)OCO4)nc3c(N)ncnc32)CC1 [MPC-0767]
EC50 [1]: 1000 nM
EC50 [2]: 200 nM
EC50 (Parental BaF3 cells): 753 nM
EC50 ([3]; Mus musculus, BaF3 EGFR exon20 V769_D770insASV, 72 hours): 236 nM
sensitivity to MPC-0767 relative to parental cells ([3]; mutant vs parental BaF3, 72 hours): approximately 3 times
basal PD-L1 cell surface expression ([4]; MPC-0767 1 μM alone): did not significantly reduce basal PD-L1 cell surface expression
IFN-γ-induced PD-L1 cell surface expression ([4]; MPC-0767 1 μM with IFN-γ 50 ng/ml, P=0.04): significantly reduced the IFN-γ-induced PD-L1 cell surface expression
IC50 (MOLM-14 cells (FLT3-ITD); MOLM-14, non-stromal media): 423 nM
IC50 (MOLM-14 cells (FLT3-ITD); MOLM-14, stromal media (HS-5 conditioned)): 627 nM
viability of KDM6A sgRNA cells vs non-targeting sgRNA (MOLM-14 cells (FLT3-ITD); MOLM-14, MPC-0767 1 μM): conferred resistance to MPC-0767
effect on body weight [5]: without significant effects on body weight
tumor regression [5]: 84%
complete tumor regression (animals) ([5]; n=10): 5/10 and Five
EC50 (cell viability) [6]: within clinically achievable concentrations
inhibition of T cell activation [7]: dose-dependently reduce inhibition of T cell activation
